Experimental findings from paper PMC9780888, “4-Isobutylmethcathinone—A Novel Synthetic Cathinone with High In Vitro Cytotoxicity and Strong Receptor Binding Preference of Enantiomers” (Pharmaceuticals, 2022) are described below.

In the assay the target is T1, dopamine receptor DAR4 (Homo sapiens, UniProt P21917).
T1 construct: host or cells: HTLA (HEK 293-derived)
T1 sequence (P21917 1-419): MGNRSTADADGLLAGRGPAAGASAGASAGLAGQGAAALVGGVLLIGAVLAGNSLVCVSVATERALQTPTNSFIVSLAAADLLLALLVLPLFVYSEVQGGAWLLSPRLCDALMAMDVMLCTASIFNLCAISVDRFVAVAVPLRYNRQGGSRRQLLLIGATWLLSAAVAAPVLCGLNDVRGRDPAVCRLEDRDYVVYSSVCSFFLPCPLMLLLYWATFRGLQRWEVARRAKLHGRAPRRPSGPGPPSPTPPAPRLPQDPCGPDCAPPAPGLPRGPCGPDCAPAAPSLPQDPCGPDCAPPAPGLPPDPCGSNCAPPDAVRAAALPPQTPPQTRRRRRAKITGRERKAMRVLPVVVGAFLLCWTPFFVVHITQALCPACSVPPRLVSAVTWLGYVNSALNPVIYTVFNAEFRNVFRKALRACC
The experiment in a line: PRESTO-Tango β-arrestin 2 recruitment assay, DAR4. To be noted: DAR4, 0-500 nM. The assay is classed as cell-based. The source says:
However, binding to a specific receptor/transporter and, thus, the mechanism of action of a given cathinone always depends on the specific structure of the evaluated compound [37]. In this study, the binding activity of IBMcat and its enantiomers was verified by PRESTO-Tango (parallel receptor expression and screening via transcriptional output, with transcriptional activation following arrestin-2 translocation) assay using the HTLA cell line stably producing β-arrestin-2 in a fusion with TEV and luciferase production driven by tTA. For this purpose, the HTLA cells were transiently transfected with plasmid DNA encoding the dopamine receptors type 1-4 (DAR1-4), which also contain the TEV protease cleavage site followed by tTA at the 3’-end (DAR1-Tango, DAR2-Tango, DAR3-Tango, DAR4-Tango). In the case of the receptor activation by a ligand, in transfected cells, the receptor is desensitized by β-arrestin fused to TEV protease. This brings the TEV protease close to the site that specifically cleaves and, thus, the transcription factor can be cleaved. The transcription factor then translocates to the cell nucleus, in which it triggers the transcription of the target gene for luciferase production which can be determined by the light emitted from luciferin conversion to oxyluciferin. Here, the pronounced luminescence was recorded for all DAR1-4 types in HTLA cells treated with IBMCat and its enantiomers (Figure 8).
The HTLA cell line was used for the PRESTO-Tango β-arrestin recruitment assay. […]
The transfected HTLA cells were incubated for 24 h, and then 1 × 10^4 cells were seeded per well of a white 96-well clear bottom plate (Brand, Germany) in 40 μL of DMEM with 1% charcoal-stripped FBS (Thermo Fisher Scientific, USA). […] After 5 min., the luminescence was measured using a multi-mode microplate reader SpectraMax iD5 (Molecular Devices, San Jose, CA, USA) measuring the entire wavelength spectrum. All samples were measured in quadruplicates. The data were evaluated by Prism 7 software (GraphPad, San Jose, CA, USA).

Counter-ions that a name gives are not always drawn.

Take `CNC(C)C(=O)c1ccc(CC(C)C)cc1.Cl` (stereo not drawn) [IBMcat, 4-isobutylmethcathinone hydrochloride]: the “maximum increase in RLU compared to untreated control” value (“maximum increase in RLU” below) turned out to be 2 fold.

`CN[C@H](C)C(=O)c1ccc(CC(C)C)cc1` [R-IBMCat]: the “maximum increase in RLU” value amounted to 1.5 fold.

Regarding `CN[C@@H](C)C(=O)c1ccc(CC(C)C)cc1` [S-IBMCat, (S)-4-isobutylmethcathinone hydrochloride], the “maximum increase in RLU” value worked out at 2 fold.
